Results reported in US20130171125A1, “Methods for the Regulation of Cellular Metabolism Through the Modulation of SIRT3 Activity” (National Institutes of Health (NIH), U.S. Dept. of Health …, priority 2010, published 2013).

Key:
HIF1α target genes = experiment: Expression of HIF1α target genes (qRT-PCR) in SIRT3 WT and KO MEFs; format: cell-based, mouse; conditions: DMOG treatment
Method: (B) Fold induction of HIF1αtarget genes in response to hypoxia (n=6) measured by qRT-PCR. The ratio of hypoxic to normoxic gene expression is shown. (C) Fold induction of Glut1 and Hk2 in response to DMOG treatment was measured by qRT-PCR and the ratio of untreated to DMOG-treated gene expression is shown (n=6). […] Significance was assessed by one-way ANOVA. […] Error bars, ±SD.
(§1) A series of experiments were performed comparing the effects of hypoxia and DMOG treatment on SIRT3 WT and KO MEFs.

HIF1α = HIF1α protein level (immunoblot) in SIRT3 WT and KO MEFs; format: cell-based, mouse; conditions: 1 mM DMOG
Method: Significance was assessed by one-way ANOVA. […] Error bars, ±SD. […] Error bars (except for growth curves), ±SEM. (*) p<0.05; (**) p<0.01.
as §1

SIRT3 KO MEFs = experiment: Growth rates of SIRT3 WT and KO MEFs cultured with NAC; format: cell-based, mouse; conditions: media supplemented with 10 mM NAC
Method: (A) Nuclear extracts from shNS and shSIRT3 HEK293T cells treated with or without 10 μM MG-132 for 1 hour or 1 mM DMOG for 4 hours as indicated were immunoblotted with antibodies specific to hydroxylated HIF1α (HIF—OH) or total HIF1α. (B) Fold induction of HIF1αtarget genes in response to hypoxia (n=6) measured by qRT-PCR. The ratio of hypoxic to normoxic gene expression is shown. (C) Fold induction of Glut1 and Hk2 in response to DMOG treatment was measured by qRT-PCR and the ratio of untreated to DMOG-treated gene expression is shown (n=6). (D) The increase in ROS production with hypoxia was calculated as the fold change in ROS in hypoxic cells relative to normoxic controls. […] Significance was assessed by one-way ANOVA. […] Error bars, ±SD. Protein carbonyls (I) and lipid peroxidation (J) were measured in brown adipose tissue (BAT) of SIRT3 WT and KO mice (n=7). […] Error bars (except for growth curves), ±SEM. […]
To confirm that the metabolite patterns reflected an increase in glycolysis, lactate produced and secreted from SIRT3 WT and KO MEFs (n=5) was measured and normalized to cell number. […] To test whether this apparent increase in aerobic glycolysis supported an increase in biomass and proliferation, growth rates of the MEFs were measured by seeding SIRT3 WT and KO MEFs in six-well plates at a density of 5,000 cells/well and counting the number of cells in triplicate every 24 hours. […]

CAMA1 cells = experiment: Glucose uptake and lactate production in CAMA1 control or SIRT3 overexpressing cells with rotenone or etomoxir; format: cell-based, human; conditions: 100 nM rotenone or 50 μg/ml etomoxir
Method: (A) Lactate production and (B) glucose consumption of MCF7, T47D and CAMA1 cells stably expressing empty vector or SIRT3 and cultured under hypoxia expressed as a ratio of empty-vector normoxic controls. (C) Relative glucose uptake and (D) relative lactate production in CAMA1 control or SIRT3 overexpressing cells incubated with or without 100 nM rotenone. (E) Glucose uptake and (F) lactate production in CAMA1 cell lines cultured in the presence or absence of 50 μg/ml etomoxir. (G) Immunoblots of CAMA1 cells stably expressing control vector or SIRT3-FLAG cultured at 1% oxygen for the indicated. (H) qRT-PCR of HIF1α target genes in CAMA1 cells cultured at 1% oxygen. (I) Induction of HIF1α target genes in response to hypoxia measured by qRT-PCR in CAMA1 cells. The ratio of normoxic to hypoxic gene expression in each cell line is shown. (J) Induction of HIF1α target genes in response to 1 mM DMOG treatment measured by qRT-PCR in CAMA1 cells. The ratio of untreated to DMOG-treated gene expression in each cell line is shown. Growth curves of CAMA1 cells (n=3) cultured in glucose (K) or galactose (L). Error bars, ±SD. (M) Schematic of the regulation of HIF1α and the Warburg effect by SIRT3. β-2-microglobulin was used as an endogenous control for qRT-PCR. Error bars (except for growth curves), ±SEM. (*) p<0.05; (**) p<0.01.
To examine the contribution of complex I activity or fatty acid oxidation on these phenotypes, glucose uptake and lactate production was measured in the presence of rotenone and etomoxir.
Metabolites were isolated by methanol extraction from cultured cells and analyzed by liquid chromatography-mass spectrometry (LC-MS). Lactate production was measured using the Lactate Reagent Kit (Trinity Biosciences). For immunoblotting, cell lysates and immunoprecipitations were probed with the following antibodies: Total OXPHOS antibody cocktail, complex II antibody cocktail, and OSCP (Mitosciences); Flag (Sigma); acetyl-lysine, LSD1 and hydroxylated HIF1α (Cell Signaling); SUCLA2 and GFP (Santa Cruz); GDH (USBiological); mouse HIF1α (Novus Biologicals) and human HIF 1 (BD Biosciences). The antibody recognizing murine SIRT3 was raised in rabbits against the (C) […] epitope conjugated to KLH at the added cysteine (Covance Research Products). SDH activity was determined by a colorometric spectrophotometric assay measuring the reduction of 2,6-dichlorophenolindophenol.

SIRT3 WT and KO MEFs = experiment: Glucose uptake and lactate secretion in MEFs with oxidation inhibitors; format: cell-based, mouse; conditions: WT cells; 100 nM rotenone or 50 μg/ml etomoxir, 24 hours
Excerpt: (A) Schematic illustrating the metabolites that are increased or decreased in SIRT3 KO MEFs compared to SIRT3 WT MEFs (n=4), p<0.1. Metabolites in parentheses were not measured. PPP, pentose phosphate pathway. The nonoxidative and oxidative arms of the PPP are shown. Levels of glycolytic intermediates (B), TCA cycle intermediates (C), glucose (D), glucose-1-phosphate (E) and ribose-5-phosphate (F). Growth curves of SIRT3 WT and KO MEFs (n=3) cultured in media containing glucose (G) or galactose (H). Error bars, ±SD. (1-N) Glucose uptake and lactate production in SIRT3 WT and KO MEFs (n=6). (I) Relative glucose uptake and (J) lactate production in SIRT3 WT and KO MEFs. (K) Relative glucose uptake and (L) relative lactate production in SIRT3 WT and KO MEFs incubated with or without 100 nM rotenone. (M) Glucose uptake and (N) lactate production in SIRT3 WT and KO MEFs cultured in the presence or absence of 50 μg/ml etomoxir. Cells were treated with drugs for 24 hours before measuring glucose uptake and lactate. All error bars (except growth curves), ±SEM. […]
Metabolites were isolated by methanol extraction from cultured cells and analyzed by liquid chromatography-mass spectrometry (LC-MS). Lactate production was measured using the Lactate Reagent Kit (Trinity Biosciences). […] SDH activity was determined by a colorometric spectrophotometric assay measuring the reduction of 2,6-dichlorophenolindophenol.

SDHA = experiment: In vitro deacetylation of SDHA in complex II immunoprecipitates; format: biochemical, mouse; conditions: with NAD, 2 hours at 37° C.

Molecule: COC(=O)CNC(=O)C(=O)OC [DMOG, dimethyloxaloylglycine]
- expression of HIF1α target genes (Glut1, Hk2) (HIF1α target genes): induce expression of HIF1α target genes
- HIF1α stabilization (HIF1α): stabilize HIF1α

Molecule: CC(=O)N[C@@H](CS)C(=O)O [NAC, N-acetylcysteine]
- proliferation (growth rate) (SIRT3 KO MEFs): rescued the increased proliferation of SIRT3 KO MEFs

Molecule: CCOC(=O)[C@@]1(CCCCCCOc2ccc(Cl)cc2)CO1 [etomoxir]
- glucose uptake (CAMA1 cells): increased
- lactate production (CAMA1 cells): increased
- glycolysis (glucose uptake and lactate production) (SIRT3 WT and KO MEFs): increased

Molecule: C=C(C)[C@H]1Cc2c(ccc3c2O[C@@H]2COc4cc(OC)c(OC)cc4[C@@H]2C3=O)O1 [rotenone]
- glucose uptake (CAMA1 cells): increased
- lactate production (CAMA1 cells): increased
- glycolysis (glucose uptake and lactate production) (SIRT3 WT and KO MEFs): increased

B1: SIRT3-H248Y-His: catalytically inactive SIRT3 (protein, UniProt Q9NTG7 1-399, looked up, variant H248Y)
chain: MAFWGWRAAAALRLWGRVVERVEAGGGVGPFQACGCRLVLGGRDDVSAGLRGSHGARGEPLDPARPLQRPPRPEVPRAFRRQPRAAAPSFFFSSIKGGRRSISFSVGASSVVGSGGSSDKGKLSLQDVAELIRARACQRVVVMVGAGISTPSGIPDFRSPGSGLYSNLQQYDLPYPEAIFELPFFFHNPKPFFTLAKELYPGNYKPNVTHYFLRLLHDKGLLLRLYTQNIDGLERVSGIPASKLVEAYGTFASATCTVCQRPFPGEDIRADVMADRVPRCPVCTGVVKPDIVFFGEPLPQRFLLHVVDFPMADLLLILGTSLEVEPFASLTEAVRSSVPRLLINRDLVGPLAWHPRSRDVAQLGDVVHGVESLVELLGWTEEMRDLVQRETGKLDGPDK
modifications: His tag
- deacetylation of SDHA (SDHA): not
